Results published in publication PMC4026539, “Improved Photodynamic Efficacy of Zn(II) Phthalocyanines via Glycerol Substitution” (PLoS ONE, 2014).

Tests used:
[1] = parameters: method as in PMID 11883602; conditions: in alcohol; reference standard; cited from earlier work
[2] = Log P partition coefficient, shake-flask method; assay type: physicochemical; conditions: Octanol-1/H2O, room temperature
Method: Phthalocyanines were prepared in presaturated Octanol-1 (Oct) or H2O depending on their solubility (ZnPcS4, phthalocyanines 1 and 2 in H2O; phthalocyanine 3 in Oct) with concentrations ranging from 1–20 µM. […] The glass tube was left to stand for 1–2 h at room temperature. The absorbance of the phthalocyanine was measured before addition of the other solvent and also after incubation. To obtain log P value, calculations were done using the formula: log P = log [COct/CH2O] where, COct and CH2O represent concentrations of phthalocyanine in Oct and H2O, respectively. Partition coefficient (log P) is defined as the ratio of concentrations of a dissolved substance in a two-phase system consisting of two immiscible solvents e.g. n-octanol and water at equilibrium. It reflects the level of hydrophilicity and hydrophobicity of a compound, which determines the permeability of the compound across the lipid bilayers of cell membrane. In this study, the log P values of the phthalocyanines were measured using the shake-flask method.

[3] = test system: HSC-2 cells; assay: Cellular uptake study by flow cytometry; assay type: cell-based, human; conditions: 10 µM
Method: HSC-2 cells were plated overnight in 6-well plates (1×10^5 cells/well) in MEM media. Cells were incubated with 10 µM of phthalocyanine 1, 2, 3 or ZnPcS4 for various time intervals. Following incubation, cells were washed twice with PBS, collected by trypsinization and resuspended in phenol red-free MEM media. The mean fluorescence signal for 10 000 cells were analyzed using FACSCalibur flow cytometer (Becton Dickinson, NJ) with FL4 channel (excitation 635 nm, bandpass filter 661/16 nm) and data collected were translated into relative concentration using the formula F = k * QE * Po * (2.303 *ε * b * c). All assays were performed in triplicates. F = measured fluorescence intensity, k = geometric instrumental factor, QE = quantum efficiency (ratio of photons being emitted to photons being absorbed) and Po = radiant power of the excitation source (wavelength-dependent molar absorptivity coefficient). b and c are as being used in the Beer-Lambert law, where b = path length, and c = concentration of the analyte.

[4] = UV-visible absorption spectra in different solvents; assay type: physicochemical; parameters: λmax: unit not given beside the values; conditions: 10 µM
Method: The UV-visible (10 µM) and fluorescence emission spectra (5 µM) of phthalocyanines in different solvents were measured using SpectraMax M4 microplate reader (Molecular Devices, CA). UV-visible spectra were collected for wavelengths ranging from 350–800 nm and molar extinction coefficient (ε) for each compound was determined. Meanwhile, the fluorescence emission spectra of the compounds were recorded at 650–800 nm following excitation at their respective maximal absorption (λmax). The fluorescence quantum yields (φF) were calculated by using the following formula: φF = φFstd (F×Astd)/[…] where, F and Fstd refer to the area under the fluorescence curve of sample and standard, respectively. A and Astd refer to the absorbance of sample and standard compound at their excitation wavelengths respectively. ZnPcS4 with φFstd = 0.07 (DMSO) was used as reference.

[5] = test system: MCF-7, HCT-116 and HSC-2 cancer cell-lines; assay: In vitro phototoxicity assay (MTT), panel of cancer cell lines; assay type: cell-based, human; conditions: 4.0 J/cm^2
Method: MCF-7 human breast carcinoma and HCT-116 cells human colon carcinoma cell lines were obtained from American Tissue Culture Collection (Virginia, USA), whereas HSC-2 human oral squamous carcinoma cell line was purchased from Health Science Research Resources Bank, (Osaka, Japan). Approximately 3000–4000 cells/well were seeded in 96-well plate and incubated overnight for cell adherence and growth. […] Illumination was performed in the presence of photosensitizer in the media. The cells were further incubated for 48 h before cell viability was assessed by the MTT assay. For MTT assay, 20 µl of MTT solution (5 mg/ml) were added to each well and incubated for 4 h. The medium was removed and replaced with 100 µl of DMSO to dissolve the formazan crystal formed and the absorbance was read at 570 nm with a microplate reader. The percentage of cell viability was determined relative to untreated control and the half maximal inhibitory concentration (IC50) values were determined. Dark toxicity for each phthalocyanine was also determined in parallel.

[6] = test system: HSC-2 human oral squamous carcinoma cell line; assay: In vitro phototoxicity assay (MTT); assay type: cell-based; conditions: 2 h incubation, MTT after 48 h
Method: (§1) MCF-7 human breast carcinoma and HCT-116 cells human colon carcinoma cell lines were obtained from American Tissue Culture Collection (Virginia, USA), whereas HSC-2 human oral squamous carcinoma cell line was purchased from Health Science Research Resources Bank, (Osaka, Japan). Approximately 3000–4000 cells/well were seeded in 96-well plate and incubated overnight for cell adherence and growth. Cells were then treated with phthalocyanines 1, 2, 3 or ZnPcS4 with concentrations ranging from 0.01 to 100 µM and were incubated for 2 h before irradiated with 4.0 J/cm^2 of light filtered with Roscolux #26 Light Red (>580 nm) (Rosco, NY) membrane filter at a fluence rate of 7.5 mW/cm^2 for 10 min. Illumination was performed in the presence of photosensitizer in the media. The cells were further incubated for 48 h before cell viability was assessed by the MTT assay. For MTT assay, 20 µl of MTT solution (5 mg/ml) were added to each well and incubated for 4 h. The medium was removed and replaced with 100 µl of DMSO to dissolve the formazan crystal formed and the absorbance was read at 570 nm with a microplate reader. The percentage of cell viability was determined relative to untreated control and the half maximal inhibitory concentration (IC50) values were determined. Dark toxicity for each phthalocyanine was also determined in parallel.

[7] = test system: HCT-116 cells human colon carcinoma; assay: In vitro phototoxicity assay (MTT); assay type: cell-based; conditions: 2 h incubation, MTT after 48 h
Method: as §1

[8] = test system: MCF-7 human breast carcinoma; assay: In vitro phototoxicity assay (MTT); assay type: cell-based; conditions: 2 h incubation, MTT after 48 h
Method: as §1

[9] = test system: CAM vasculature; assay: PDT-induced vascular occlusion in CAM model; assay type: in vivo, Lohmann Brown chicken; conditions: for Occlusion score: 10 nmol/embryo i.v., mean ± SEM of ten embryos, scale of Table 1
Method: Freshly fertilized eggs from Lohmann Brown chicken variety (Hong Hing Sdn. Bhd, Selangor, Malaysia) were incubated with the narrow apex down in a 90° swinging Octagon 40DX incubator (Brinsea Products Inc., Standford, England) at 37°C and 65% relative humidity. On embryo development day (EDD) three, an eggshell opening of about 4 mm in diameter was bored at the apex and sealed with adhesive tape to avoid contamination and desiccation of the egg contents. The eggs were further incubated in stationary position with the apex upright until ready for use at EDD-9.
For vascular occlusion study, the egg opening was extended to ∼30 mm in diameter on EDD-9. Embryos were intravenously administered with a single bolus of 10 nmol/embryo of phthalocyanine in dosing vehicle (5% CrEL, 5% EtOH in saline) at the CAM main vasculature. One min after injection, a site with blood vessel diameter between 5–100 µm was irradiated with a light dose of 5 J/cm^2 or 10 J/cm^2. Irradiation was performed with light of 600–800 nm wavelength with a fluence rate of 11.5 mW/cm^2 over an irradiation area of 1.13 mm^2. Fluorescence angiograms were performed immediately to assess the PDT-induced vasculature damage. Blood vessels were perfused with 20 µl of 25 mg/ml FITC-dextran followed by injection of Indian ink into the extra-embryonic cavity to decrease the embryo’s interfering fluorescence from deeper located vessels. The vasculature network at the site of irradiation was illuminated by exciting FITC at 465–496 nm wavelengths on the fluorescence microscope. The vasculature network was imaged and the extent of damage induced by PDT was scored using a previously defined arbitrary damage scale from 1 to 5 as listed in Table 1 [26]. Generally, the damage on smaller vessels would have lower score whereas the damage on larger blood vessels would have higher score, depending on the size and degree of damage that was caused. At least 10 embryos were assessed for each treatment group.

[10] = parameters: method as in earlier work; conditions: in DMSO; reference standard value; cited from earlier work

## C=Cc1c(C)c2cc3nc(c4c5[nH]c(cc6nc(cc1[nH]2)C(C)=C6CC)c(C)c5C(=O)[C@@H]4C(=O)OC)[C@@H](CCC(=O)O)[C@@H]3C [Pha, pheophorbide a]
[1]
  singlet oxygen quantum yield: 0.52

## tetrasulfonated zinc (II) phthalocyanine [ZnPcS4]
[2]
  log P: −1.7±0.4
[3]
  cellular uptake (in words): poorly taken up by cells
[4]; DMSO
  ε: 114 000 M^−1cm^−1
  λmax: 676
[4]; Ethanol
  ε: 27 000 M^−1cm^−1
  λmax: 666
[4]; PBS+2% Triton x-100
  ε: 20 000 M^−1cm^−1
  λmax: 606
[4]; PBS
  ε: 23 000 M^−1cm^−1
  λmax: 606
[5]; tested up to 100 µM
  phototoxicity IC50, range over MCF-7, HCT-116 and HSC-2: failed to yield determinable IC50 values
[5]; treatment concentrations of up to 100 µM
  loss of cell viability: no significant loss of cell viability
[6]; 0 J/cm^2 (dark toxicity)
  IC50: > 100 µM
[6]; 4.0 J/cm^2 (>580 nm)
  IC50: > 100 µM
[7]; 0 J/cm^2 (dark toxicity)
  IC50: > 100 µM
[7]; 4.0 J/cm^2 (>580 nm)
  IC50: > 100 µM
[8]; 0 J/cm^2 (dark toxicity)
  IC50: > 100 µM
[8]; 4.0 J/cm^2 (>580 nm)
  IC50: > 100 µM
[9]; 5 J/cm^2, 600–800 nm
  Occlusion score: 0 ± 0.0
[9]; 10 J/cm^2, 600–800 nm
  Occlusion score: 0 ± 0.2
[9]; 10 nmol/embryo, 5 J/cm^2
  vascular occlusion effect (in words): failed to demonstrate vascular occlusion effects
[9]; similar experimental conditions, light dose not stated at the place (abstract)
  vascular occlusion effect (in words): no detectable vascular occlusion
[10]
  φF (fluorescence quantum yield): 0.07
